Measured values as given in ChEMBL document CHEMBL3885861, “Open TG-GATES”.

Species: Rattus norvegicus
Experiment: Open TG-GATES - Regimen: Single
Type: toxicity, organism-based, Sprague-Dawley
Design: regimen Single, gender Male, age 6 weeks
Conditions: in vivo, po, route gavage; for APTT / Bas / Eos / Fbg / Hb / Lym / MCH / MCHC / MCV / Mono / RBC / Ret / WBC / Neu: tissue Blood; for KIDNEY_L / KIDNEY_R / KIDNEY_TOTAL: tissue Kidney; for LIVER: tissue Liver; for ALP / ALT / AST / CRE / Ca / Cl / DBIL / GLC / IP / K / LDH / Na / PL / RALB / TBIL / TC / TG / TP / gamma-GTP: tissue Plasma
[1] = 0 mg/kg, 3 h, dose level Control
[2] = 0 mg/kg, 6 h, dose level Control
[3] = 0 mg/kg, 9 h, dose level Control
[4] = 0 mg/kg, 24 h, dose level Control
[5] = 75 mg/kg, 3 h, dose level Middle

## O=C1CN(/N=C/c2ccc(-c3ccc([N+](=O)[O-])cc3)o2)C(O)=N1 [DANTROLENE]
[1]
  TERMINAL_BW: 200.3 g
  APTT: 16.2 s
  Bas: 0%
  Eos: 1%
  Fbg: 209.6 mg/dL
  Hb: 13.4 g/dL
  Lym: 82.4%
  MCH: 22.9 pg
  MCHC: 34.6%
  MCV: 66.2 fL
  Mono: 5.6%
  RBC: 586.4 x10_4/ul
  Ret: 10.7%
  WBC: 134.1 x10_2/uL
  KIDNEY_L: 1 g
  KIDNEY_R: 1 g
  KIDNEY_TOTAL: 1.9 g
  LIVER: 9.3 g
  ALP: 876.8 IU/L
  ALT: 36.2 IU/L
  AST: 69.2 IU/L
  CRE: 0.5 mg/dL
  Ca: 10.6 mg/dL
  Cl: 103.8 meq/L
  DBIL: 0.058 mg/dL
  GLC: 194.2 mg/dL
  IP: 8.7 mg/dL
  K: 4.7 meq/L
  LDH: 92.8 IU/L
  Na: 139.6 meq/L
  PL: 134.8 mg/dL
  RALB: 3.6 g/dL
  TBIL: 0.3 mg/dL
  TC: 75 mg/dL
  TG: 47 mg/dL
  TP: 5.3 g/dL
  gamma-GTP: 2.2 IU/L
[2]
  TERMINAL_BW: 201.9 g
  APTT: 16.6 s
  Bas: 0%
  Eos: 1%
  Fbg: 205 mg/dL
  Hb: 13.3 g/dL
  Lym: 77.4%
  MCH: 22.6 pg
  MCHC: 34.6%
  MCV: 65.4 fL
  Mono: 9.2%
  RBC: 588 x10_4/ul
  Ret: 13.2%
  WBC: 107.2 x10_2/uL
  KIDNEY_L: 1 g
  KIDNEY_R: 0.9 g
  KIDNEY_TOTAL: 1.9 g
  LIVER: 9.3 g
  ALP: 689.6 IU/L
  ALT: 32.6 IU/L
  AST: 59.6 IU/L
  CRE: 0.5 mg/dL
  Ca: 10.5 mg/dL
  Cl: 104.4 meq/L
  DBIL: 0.064 mg/dL
  GLC: 196.4 mg/dL
  IP: 9.5 mg/dL
  K: 4.7 meq/L
  LDH: 82.2 IU/L
  Na: 140 meq/L
  PL: 135.2 mg/dL
  RALB: 3.5 g/dL
  TBIL: 0.3 mg/dL
  TC: 79.8 mg/dL
  TG: 58.2 mg/dL
  TP: 5.3 g/dL
  gamma-GTP: 1.2 IU/L
[3]
  TERMINAL_BW: 195.9 g
  APTT: 17.1 s
  Bas: 0%
  Eos: 1%
  Fbg: 200.6 mg/dL
  Hb: 13 g/dL
  Lym: 76.4%
  MCH: 21.5 pg
  MCHC: 33.1%
  MCV: 64.9 fL
  Mono: 9.8%
  RBC: 605.8 x10_4/ul
  Ret: 10.2%
  WBC: 98.6 x10_2/uL
  KIDNEY_L: 0.9 g
  KIDNEY_R: 0.9 g
  KIDNEY_TOTAL: 1.8 g
  LIVER: 8 g
  ALP: 881.6 IU/L
  ALT: 33.4 IU/L
  AST: 73.2 IU/L
  CRE: 0.5 mg/dL
  Ca: 10.1 mg/dL
  Cl: 107.6 meq/L
  DBIL: 0.084 mg/dL
  GLC: 200.2 mg/dL
  IP: 10.4 mg/dL
  K: 4.9 meq/L
  LDH: 80.2 IU/L
  Na: 140 meq/L
  PL: 127.2 mg/dL
  RALB: 3.6 g/dL
  TBIL: 0.4 mg/dL
  TC: 73.2 mg/dL
  TG: 21.2 mg/dL
  TP: 5.1 g/dL
  gamma-GTP: 1.6 IU/L
[4]
  TERMINAL_BW: 212.6 g
  APTT: 17.5 s
  Bas: 0%
  Eos: 1.2%
  Fbg: 207.4 mg/dL
  Hb: 13.2 g/dL
  Lym: 76.6%
  MCH: 21.9 pg
  MCHC: 33.7%
  MCV: 64.9 fL
  Mono: 9.4%
  RBC: 602.2 x10_4/ul
  Ret: 12.5%
  WBC: 91.9 x10_2/uL
  KIDNEY_L: 1 g
  KIDNEY_R: 1 g
  KIDNEY_TOTAL: 2 g
  LIVER: 10.2 g
  ALP: 993.6 IU/L
  ALT: 33.8 IU/L
  AST: 63.8 IU/L
  CRE: 0.5 mg/dL
  Ca: 10.9 mg/dL
  Cl: 105.6 meq/L
  DBIL: 0.012 mg/dL
  GLC: 198.4 mg/dL
  IP: 8 mg/dL
  K: 4.7 meq/L
  LDH: 80.6 IU/L
  Na: 141.6 meq/L
  PL: 144.2 mg/dL
  RALB: 3.7 g/dL
  TBIL: 0.4 mg/dL
  TC: 73.8 mg/dL
  TG: 91.6 mg/dL
  TP: 5.5 g/dL
  gamma-GTP: 1.8 IU/L
25 mg/kg, 3 h, dose level Low
  TERMINAL_BW: 196.9 g
  APTT: 16.9 s
  Bas: 0%
  Eos: 1%
  Fbg: 205.2 mg/dL
  Hb: 13.6 g/dL
  Lym: 74.4%
  MCH: 22.5 pg
  MCHC: 34.1%
  MCV: 65.9 fL
  Mono: 8.4%
  Neu: 16.2%
  RBC: 604.8 x10_4/ul
  Ret: 10.4%
  WBC: 99.1 x10_2/uL
  KIDNEY_L: 1 g
  KIDNEY_R: 1 g
  KIDNEY_TOTAL: 1.9 g
  LIVER: 9.5 g
  ALP: 1009.8 IU/L
  ALT: 38.4 IU/L
  AST: 69.2 IU/L
  CRE: 0.6 mg/dL
  Ca: 10.5 mg/dL
  Cl: 101.8 meq/L
  DBIL: 0.03 mg/dL
  GLC: 213 mg/dL
  IP: 10.8 mg/dL
  K: 4.8 meq/L
  LDH: 97.8 IU/L
  Na: 139.2 meq/L
  PL: 141.6 mg/dL
  RALB: 3.8 g/dL
  TBIL: 0.4 mg/dL
  TC: 83.4 mg/dL
  TG: 39.4 mg/dL
  TP: 5.6 g/dL
  gamma-GTP: 2.6 IU/L
25 mg/kg, 6 h, dose level Low
  TERMINAL_BW: 191.8 g
  APTT: 16.9 s
  Bas: 0%
  Eos: 1.2%
  Fbg: 210.4 mg/dL
  Hb: 13.8 g/dL
  Lym: 77%
  MCH: 21.9 pg
  MCHC: 34.3%
  MCV: 64.1 fL
  Mono: 8%
  Neu: 14%
  RBC: 632.4 x10_4/ul
  Ret: 12.6%
  WBC: 89.5 x10_2/uL
  KIDNEY_L: 0.9 g
  KIDNEY_R: 0.9 g
  KIDNEY_TOTAL: 1.8 g
  LIVER: 8.7 g
  ALP: 698.6 IU/L
  ALT: 30.4 IU/L
  AST: 60.4 IU/L
  CRE: 0.5 mg/dL
  Ca: 10.3 mg/dL
  Cl: 103 meq/L
  DBIL: 0.07 mg/dL
  GLC: 188.2 mg/dL
  IP: 9.7 mg/dL
  K: 4.7 meq/L
  LDH: 100.8 IU/L
  Na: 139.2 meq/L
  PL: 141.6 mg/dL
  RALB: 3.7 g/dL
  TBIL: 0.4 mg/dL
  TC: 78.8 mg/dL
  TG: 44 mg/dL
  TP: 5.3 g/dL
  gamma-GTP: 2 IU/L
25 mg/kg, 9 h, dose level Low
  TERMINAL_BW: 189.9 g
  APTT: 16.4 s
  Bas: 0%
  Eos: 0.6%
  Fbg: 209.8 mg/dL
  Hb: 13.9 g/dL
  Lym: 80.6%
  MCH: 21.6 pg
  MCHC: 33.1%
  MCV: 65.4 fL
  Mono: 5%
  Neu: 14%
  RBC: 644 x10_4/ul
  Ret: 10.9%
  WBC: 83 x10_2/uL
  KIDNEY_L: 0.9 g
  KIDNEY_R: 0.9 g
  KIDNEY_TOTAL: 1.8 g
  LIVER: 8.2 g
  ALP: 723.6 IU/L
  ALT: 22.2 IU/L
  AST: 49.4 IU/L
  CRE: 0.6 mg/dL
  Ca: 10.4 mg/dL
  Cl: 104.4 meq/L
  DBIL: 0.062 mg/dL
  GLC: 199.4 mg/dL
  IP: 10.1 mg/dL
  K: 5.1 meq/L
  LDH: 75.2 IU/L
  Na: 139 meq/L
  PL: 137.2 mg/dL
  RALB: 3.7 g/dL
  TBIL: 0.4 mg/dL
  TC: 69.8 mg/dL
  TG: 42.8 mg/dL
  TP: 5.5 g/dL
  gamma-GTP: 2 IU/L
25 mg/kg, 24 h, dose level Low
  TERMINAL_BW: 208.5 g
  APTT: 16.6 s
  Bas: 0%
  Eos: 1%
  Fbg: 200.4 mg/dL
  Hb: 13.1 g/dL
  Lym: 81.2%
  MCH: 21.9 pg
  MCHC: 33.5%
  MCV: 65.4 fL
  Mono: 6.8%
  RBC: 600.4 x10_4/ul
  Ret: 11.4%
  WBC: 97.3 x10_2/uL
  KIDNEY_L: 1 g
  KIDNEY_R: 1 g
  KIDNEY_TOTAL: 2 g
  LIVER: 10.4 g
  ALP: 1049.2 IU/L
  ALT: 35.8 IU/L
  AST: 71.2 IU/L
  CRE: 0.5 mg/dL
  Ca: 11.1 mg/dL
  Cl: 105.4 meq/L
  DBIL: 0.012 mg/dL
  GLC: 198.2 mg/dL
  IP: 6.5 mg/dL
  K: 4.7 meq/L
  Na: 142 meq/L
  PL: 142.4 mg/dL
  RALB: 3.9 g/dL
  TBIL: 0.3 mg/dL
  TC: 77.8 mg/dL
  TG: 73.2 mg/dL
  TP: 5.6 g/dL
  gamma-GTP: 1.6 IU/L
[5]
  TERMINAL_BW: 194 g
  APTT: 16.9 s
